Measured values published in ChEMBL document CHEMBL4020848, “Antibacterial Activity Affected by the Conformational Flexibility in Glycine-Lysine Based α-Helical Antimicrobial Peptides” (J Med Chem, 2018).
Calls of active or inactive are those of the source. The rule behind the calls is not given here.

Assays:
[1] = test system: Escherichia coli; test: Induction of membrane permeabilization in Escherichia coli ATCC 25922 assessed as loss of pili/flagella at MBC after 1 hr by atomic force microscopic method; assay type: functional
[2] = test system: Escherichia coli; test: Bactericidal activity against Escherichia coli ATCC 25922 after 18 hrs by microdilution method; assay type: functional; conditions: for MBC: ATCC 25922, 18 h, read-out: MBC=>99.9
[3] = test system: Escherichia coli; test: Antibacterial activity against Escherichia coli ATCC 25922 after 18 hrs by microdilution method; assay type: functional
[4] = test system: Escherichia coli; test: Induction of membrane permeabilization in Escherichia coli ATCC 25922 assessed as loss of pili/flagella at MIC after 1 hr by atomic force microscopic method; assay type: functional
[5] = Selectivity index, ratio of HC50 for human RBC to MIC for Staphylococcus aureus
[6] = test system: Escherichia coli; test: Bactericidal activity against clinical isolates of Escherichia coli after 18 hrs by microdilution method; assay type: functional; conditions: read-out: MBC=>99.9
[7] = test system: Pseudomonas aeruginosa; test: Antibacterial activity against Pseudomonas aeruginosa ATCC 27853 after 18 hrs by microdilution method; assay type: functional; conditions: ATCC 27853, 18 h
[8] = test system: Klebsiella pneumoniae; test: Bactericidal activity against clinical isolates of Klebsiella pneumoniae after 18 hrs by microdilution method; assay type: functional; conditions: read-out: MBC=>99.9
[9] = Selectivity index, ratio of HC50 for human RBC to MIC for Klebsiella pneumoniae
[10] = test system: Acinetobacter baumannii; test: Antibacterial activity against Acinetobacter baumannii ATCC 19606 after 18 hrs by microdilution method; assay type: functional; conditions: ATCC 19606 = CIP 70.34 = JCM 6841, 18 h
[11] = Selectivity index, ratio of HC50 for human RBC to MIC for Acinetobacter baumannii
[12] = Selectivity index, ratio of HC50 for human RBC to MIC for Acinetobacter baumannii ATCC 19606
[13] = test system: Klebsiella pneumoniae; test: Bactericidal activity against Klebsiella pneumoniae ATCC 13883 after 18 hrs by microdilution method; assay type: functional; conditions: ATCC 13883, 18 h, read-out: MBC=>99.9
[14] = test system: Escherichia coli; test: Induction of membrane permeabilization in Escherichia coli ATCC 25922 assessed as formation of pores/cavities at MIC after 1 hr by atomic force microscopic method; assay type: functional
[15] = test system: Escherichia coli; test: Ratio of MIC to IC50 for Escherichia coli ATCC 25922; assay type: functional
[16] = test system: Escherichia coli; test: Antibacterial activity against clinical isolates of Escherichia coli after 18 hrs by microdilution method; assay type: functional
[17] = test system: Escherichia coli; test: Growth inhibition of Escherichia coli ATCC 25922 measured every 10 mins for 4 hrs; assay type: functional
[18] = test system: Staphylococcus aureus; test: Growth inhibition of Staphylococcus aureus ATCC 25923 measured every 10 mins for 4 hrs; assay type: functional
[19] = test system: Pseudomonas aeruginosa; test: Bactericidal activity against Pseudomonas aeruginosa ATCC 27853 after 18 hrs by microdilution method; assay type: functional; conditions: ATCC 27853, 18 h, read-out: MBC=>99.9
[20] = test system: Staphylococcus aureus; test: Antibacterial activity against Staphylococcus aureus ATCC 25923 after 18 hrs by microdilution method; assay type: functional; conditions: ATCC 25923, 18 h
[21] = test system: Pseudomonas aeruginosa; test: Antibacterial activity against clinical isolates of Pseudomonas aeruginosa after 18 hrs by microdilution method; assay type: functional
[22] = test system: Escherichia coli; test: Induction of membrane permeabilization in Escherichia coli ATCC 25922 assessed as bleb formation at MIC after 1 hr by atomic force microscopic method; assay type: functional
[23] = Selectivity index, ratio of HC50 for human RBC to MIC for Escherichia coli
[24] = test system: Escherichia coli; test: Induction of membrane permeabilization in Escherichia coli ATCC 25922 assessed as propidium iodide uptake preincubated up to 60 mins followed by propidium iodide addition by flow cytometry; assay type: functional
[25] = test system: Pseudomonas aeruginosa; test: Bactericidal activity against clinical isolates of Pseudomonas aeruginosa after 18 hrs by microdilution method; assay type: functional; conditions: read-out: MBC=>99.9
[26] = Selectivity index, ratio of HC50 for human RBC to MIC for Pseudomonas aeruginosa
[27] = test system: Staphylococcus aureus; test: Antibacterial activity against clinical isolates of Staphylococcus aureus after 18 hrs by microdilution method; assay type: functional
[28] = test system: Klebsiella pneumoniae; test: Antibacterial activity against Klebsiella pneumoniae ATCC 13883 after 18 hrs by microdilution method; assay type: functional; conditions: ATCC 13883, 18 h
[29] = test system: Acinetobacter baumannii; test: Bactericidal activity against Acinetobacter baumannii ATCC 19606 after 18 hrs by microdilution method; assay type: functional; conditions: ATCC 19606 = CIP 70.34 = JCM 6841, 18 h, read-out: MBC=>99.9
[30] = test system: Staphylococcus aureus; test: Bactericidal activity against clinical isolates of Staphylococcus aureus after 18 hrs by microdilution method; assay type: functional; conditions: read-out: MBC=>99.9
[31] = test system: Escherichia coli; test: Induction of membrane permeabilization in Escherichia coli ATCC 25922 assessed as massive cell disruption/collapse at MBC after 1 hr by atomic force microscopic method; assay type: functional
[32] = Selectivity index, ratio of HC50 for human RBC to MIC for Escherichia coli ATCC 25922
[33] = test system: Acinetobacter baumannii; test: Bactericidal activity against clinical isolates of Acinetobacter baumannii after 18 hrs by microdilution method; assay type: functional; conditions: read-out: MBC=>99.9
[34] = test system: Acinetobacter baumannii; test: Antibacterial activity against clinical isolates of Acinetobacter baumannii after 18 hrs by microdilution method; assay type: functional
[35] = test system: Staphylococcus aureus; test: Bactericidal activity against Staphylococcus aureus ATCC 25923 after 18 hrs by microdilution method; assay type: functional; conditions: ATCC 25923, 18 h, read-out: MBC=>99.9
[36] = Selectivity index, ratio of HC50 for human RBC to MIC for Klebsiella pneumoniae ATCC 13883
[37] = test system: Escherichia coli; test: Induction of membrane permeabilization in Escherichia coli ATCC 25922 assessed as surface indentations at MIC after 1 hr by atomic force microscopic method; assay type: functional
[38] = test system: Escherichia coli; test: Induction of membrane permeabilization in Escherichia coli ATCC 25922 assessed as propidium iodide uptake at MIC preincubated for 15 mins followed by propidium iodide addition by flow cytometry relative to control; assay type: functional
[39] = Selectivity index, ratio of HC50 for human RBC to MIC for Staphylococcus aureus ATCC 25923
[40] = test system: Klebsiella pneumoniae; test: Antibacterial activity against clinical isolates of Klebsiella pneumoniae after 18 hrs by microdilution method; assay type: functional
[41] = Selectivity index, ratio of HC50 for human RBC to MIC for Pseudomonas aeruginosa ATCC 27853

MIC [7] [µM] | MIC [10] [µM] | MIC [16] [µM] | MIC [20] [µM] | MIC [21] [µM] | MIC ([3]; ATCC 25922, 18 h) [µM] | Substance | Activity [1] | Selectivity Index [5] | MBC [6] [µM] | MBC [8] [µM] | Selectivity Index [9] | Selectivity Index [11] | Selectivity Index [12] | MBC [2] [µM] | MBC [13] [µM] | Activity [14] | IC50 [17] [nM] | IC50 [18] [nM] | MBC [19] [µM] | Activity [22] | further results
 |  |  |  |  |  | COLISTIN | Active |  |  |  |  |  |  |  |  |  |  |  |  |  | MBC=>99.9 [2]: 0.5 µM; MIC [3]: 0.5 µM; Activity [4]: Active
8 to 16 | 1 to 2 | 64 | 16 to 32 | 8 to 16 | 4 | H-KIAKGALKALKIAKGALKAL-NH2 | Active | 6 | > 64 | 16 | 12 | < 1 | 50 to 100 | 16 | 4 | Active | 300 | 1600 | 16 to 32 | Active | Ratio [15]: >10; Selectivity Index [23]: < 1; IC50 [24]: 600 nM; MBC [25]: 16 µM; Selectivity Index [26]: 6 to 12; MIC [27]: 16 µM; MIC [28]: 2 to 4 µM; MBC [29]: 2 µM; MBC [30]: 16 µM; Activity [31]: Active; Selectivity Index [32]: 25; MBC [33]: > 64 µM; MIC [34]: > 64 µM; MBC [35]: 32 µM; Selectivity Index [36]: 25 to 50; Activity [37]: Active; Activity [38]: >80%; Selectivity Index [39]: 3 to 6; MIC [40]: 8 µM; Selectivity Index [41]: 6 to 12
8 to 16 | 2 | 32 | 4 | 32 | 1 to 2 | H-KIALKALKALKALGKALKAL-NH2 | Active | 2 to 6 | 32 | 32 to 64 | < 1 | < 1 | 5 | 2 to 4 | 4 | Active | 350 | 400 | 16 | Active | Selectivity Index [23]: < 1; IC50 [24]: 200 nM; MBC [25]: 32 µM; Selectivity Index [26]: < 1; MIC [27]: 2 to 4 µM; MIC [28]: 2 to 4 µM; MBC [29]: 2 µM; MBC [30]: 4 to 8 µM; Activity [31]: Active; Selectivity Index [32]: 5 to 10; MBC [33]: 32 µM; MIC [34]: 16 to 32 µM; MBC [35]: 4 µM; Selectivity Index [36]: 2 to 6; Activity [37]: Active; Activity [38]: >80%; Selectivity Index [39]: 2.5; MIC [40]: 16 to 32 µM; Selectivity Index [41]: < 1
8 | 2 | 32 to 64 | 16 | 16 to 32 | 8 | H-KIGKALGKALKALGKALGKA-NH2 | Active | < 1 | 64 | 32 | < 1 | < 1 | 5 | 16 | 32 | Active | 700 | 2300 | 16 | Active | Selectivity Index [23]: < 1; IC50 [24]: 1400 nM; MBC [25]: 32 µM; Selectivity Index [26]: < 1; MIC [27]: 16 µM; MIC [28]: 16 µM; MBC [29]: 2 µM; MBC [30]: 16 to 32 µM; Activity [31]: Active; Selectivity Index [32]: 2; MBC [33]: 64 µM; MIC [34]: 32 to 64 µM; MBC [35]: 32 µM; Selectivity Index [36]: < 1; Activity [37]: Active; Activity [38]: >80%; Selectivity Index [39]: < 1; MIC [40]: 16 µM; Selectivity Index [41]: 2
